Experimental data taken from PubChem BioAssay (NCI).
Values joined by “and” are separate entries in the source; they are usually repeats but may differ in a detail not shown here. Identical values can stand only once.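 Five concentrations, 48 hours, 96-well plates. Here, GI50 denotes the concentration required for 50% inhibition of growth. TGI denotes the concentration required for complete inhibition of growth.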

What was measured:
Experiment in all cases: NCI-60 cell line screen, 48 h
A549 NSCLC = test system: A549 NSCLC
HT29 colon = test system: HT29 colon
MDA-MB-231 breast = test system: MDA-MB-231 breast
OVCAR-4 ovarian = test system: OVCAR-4 ovarian
PC-3 prostate = test system: PC-3 prostate
SF-539 CNS = test system: SF-539 CNS
SK-MEL-2 melanoma = test system: SK-MEL-2 melanoma
SK-MEL-5 melanoma = test system: SK-MEL-5 melanoma
T-47D breast = test system: T-47D breast
TK-10 renal = test system: TK-10 renal

Row | SMILES | GI50 (A549 NSCLC) | TGI (A549 NSCLC) | GI50 (HT29 colon) | TGI (HT29 colon) | GI50 (MDA-MB-231 breast) | TGI (MDA-MB-231 breast) | GI50 (OVCAR-4 ovarian) | TGI (OVCAR-4 ovarian) | GI50 (PC-3 prostate) | TGI (PC-3 prostate) | GI50 (SF-539 CNS) | TGI (SF-539 CNS) | GI50 (SK-MEL-2 melanoma) | TGI (SK-MEL-2 melanoma) [µM] | GI50 (SK-MEL-5 melanoma) | TGI (SK-MEL-5 melanoma) | GI50 (T-47D breast) | TGI (T-47D breast) | GI50 (TK-10 renal) | TGI (TK-10 renal)
1 | O=C1C(=O)c2ccccc2C(O)=C1CCCc1ccc(C2CCCC2)cc1 | 3.36 µM | 32.9 µM | 5.43 µM | 19.5 µM | 11.1 µM | 43.9 µM | 5.92 µM | 39.7 µM | 3.3 µM | 19.7 µM | 5.57 µM | 25.9 µM | 7.2 µM | 32.7 | 3.79 µM | 14.5 µM | 7.21 µM | 98 µM | 6.99 µM | 34.1 µM
2 | CSc1ccc2c(c1)N(CCC1CCCCN1C)c1ccccc1S2 (stereo not given) | 10.9 µM and 2.65 µM | 24.1 µM and 10.3 µM | 4.08 µM and 2.54 µM | 15.1 µM and 7.9 µM | 2.08 µM and 2.4 µM | 5.99 µM and 6.11 µM | 7.99 µM and 5.22 µM | 20.3 µM and 16.9 µM | 4.27 µM and 3.63 µM | 16.6 µM and 13.8 µM | 14.1 µM and 5.63 µM | 28.2 µM and 18.2 µM | 10.7 µM | 25.8 | 1.86 µM and 1.64 µM | 3.89 µM and 3.02 µM | 5.82 µM and 3.4 µM | 23.3 µM and 11.4 µM | 13.8 µM and 4.11 µM | 28.5 µM and 13.4 µM
3 | COC(C(=O)C(O)C(C)O)C1Cc2cc3cc(OC4CC(OC5CC(O)C(O)C(C)O5)C(O)C(C)O4)c(C)c(O)c3c(O)c2C(=O)C1OC1CC(OC2CC(O)C(OC3CC(C)(O)C(O)C(C)O3)C(C)O2)C(O)C(C)O1 (stereo not given) | 12.6 ng/mL and 1.27 ng/mL |  | 2.84 ng/mL | 2.03 µg/mL | 0.0279 µg/mL and 0.032 µg/mL | 112 µg/mL and 43.5 µg/mL | 0.0242 µg/mL and 0.00192 µg/mL | 0.269 µg/mL and 0.143 µg/mL | 0.0194 µg/mL and 0.0396 µg/mL |  | 11.2 ng/mL and 0.474 ng/mL |  | 11.2 ng/mL and 1.5 ng/mL |  | 11.2 ng/mL and 1.86 ng/mL |  | 0.0175 µg/mL | 15.8 µg/mL | 0.0252 µg/mL and 0.295 µg/mL | 
4 | CCN(Cc1ccccc1Cl)c1ccc(CO)c(Cl)c1 | 3.06 µM | 18.7 µM | 5.94 µM | 20 µM | 13.1 µM | 26.2 µM | 0.368 µM | 9.36 µM | 12.5 µM | 25.8 µM | 15 µM | 29 µM | 2.39 µM | 16.1 | 4.11 µM | 17.1 µM | 0.06 µM | 0.522 µM | < 0.0334 µM | 0.257 µM
5 | c1ccc(CN2CCC3(CC2)SSC2(CCN(Cc4ccccc4)CC2)SS3)cc1 |  | > 100 µM |  | > 100 µM |  | > 100 µM |  | > 100 µM |  | > 100 µM |  | > 100 µM |  | > 100 |  | > 100 µM |  | > 100 µM |  | > 100 µM
6 | O=[N+]([O-])c1ccc(Sc2nc(Cl)nc(NC3CCCC3)n2)cc1 |  |  | > 10 µM | > 10 µM | > 10 µM | > 10 µM | > 10 µM | > 10 µM | > 10 µM | > 10 µM | > 10 µM | > 10 µM | > 10 µM | > 10 | 5.32 µM | > 10 µM | > 10 µM | > 10 µM | > 10 µM | > 10 µM
7 | O=C(O)C1C2C=CC(C2)C1C(=O)O (stereo not given) | > 100 µM | > 100 µM | > 100 µM | > 100 µM | > 100 µM | > 100 µM | > 100 µM | > 100 µM | > 100 µM | > 100 µM | > 100 µM | > 100 µM | > 100 µM | > 100 | > 100 µM | > 100 µM | > 100 µM | > 100 µM |  | 
